Assay results published in patent US20040204577A1, “Novel peptide-forming enzyme gene” (Ajinomoto Co., Inc., priority 2003, published 2004).
Where a SMILES comes first, the peptide text is derived from it.

Tests used:
[1] = system: microbial cells of Empedobacter brevis strain FERM BP-8113; test: Production of peptide using microbial cells; type: cell-based; conditions: 1 mL cell suspension (100 g/L) + 1 mL buffer with 200 mM carboxy component (hydrochloride) and 400 mM amino acid; borate buffer pH 9.0, 10 mM EDTA; 18° C., 2 hours
Protocol: A 50 mL medium (pH 6.2) containing 5 grams (g) of glucose, 5 g of ammonium sulfate, 1 g of monopotassium phosphate, 3 g of dipotassium phosphate, 0.5 g of magnesium sulfate, 10 g of yeast extract and 10 g of peptone in 1 liter (L) was transferred to a 500 mL Sakaguchi flask and sterilized at 115° C. for 15 minutes. This medium was then inoculated with one loopful cells of Empedobacter brevis strain FERM BP-8113 (Depositary institution: the independent administrative corporation, National Institute of Advanced Industrial Science and Technology, International Patent Organism Depositary, Address of depositary institution: Chuo Dai-6, 1-1 Higashi 1-Chome, Tsukuba-shi, Ibaraki-ken, Japan, International deposit transfer date: Jul. 8, 2002) that had been cultured at 30° C. for 16 hours in the same medium, followed by shake culturing at 30° C. for 16 hours and 120 strokes/min.

[2] = system: peptide-forming enzyme (Mono S fraction enzyme); test: Production of L-alanyl-L-glutamine from L-alanine methyl ester and L-glutamine with enzyme fraction; type: biochemical, Empedobacter brevis; conditions: for L-Ala-L-Gln: L-alanine methyl ester hydrochloride 100 mM, 18° C., 2 hours
Protocol: On the other hand, there was hardly any production of L-Ala-L-Gln observed in an enzyme-non-added lot, and the […] was only about 0.07 mM after reacting for 120 minutes.

[3] = system: peptide-forming enzyme (Mono S fraction enzyme); test: Enzyme substrate specificity (1)-(10), (13), (14): peptide production; type: biochemical, Empedobacter brevis; conditions: pH 9.0, 25° C., 3 hours
Procedure, shortened: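 Mono S enzyme fraction in 100 mM borate buffer (pH 9.0) with 10 mM EDTA and 100 mM carboxy component (amino acid methyl esters or amides); amine components (L-glutamine, amino acids, amino acid amides or methylamine) at 150 mM, or 200 mM L-glutamine with varied esters. Reactions ran at 25° C for 2–3 hours; 0.1% Tween-80 added for Trp/Tyr-OMe.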

## C[C@H](N)C(=O)N[C@@H](CCC(N)=O)C(=O)O [L-Ala-L-Gln, L-alanyl-L-glutamine] (H-Ala-Gln-OH)
[1]
  Formed peptide: 68.0 mM
[2]; 100 mM L-alanine methyl ester hydrochloride, 200 mM L-glutamine, 10 mM EDTA, pH 9.0, 18° C., FIG. 3
  Peptide formed, enzyme-added lot: 83 mM
[2]; L-glutamine 100 mM
  L-Ala-L-Gln: 68.2 mM
[2]; L-glutamine 110 mM
  L-Ala-L-Gln: 72.1 mM
[2]; L-glutamine 120 mM
  L-Ala-L-Gln: 73.3 mM
[2]; L-glutamine 130 mM
  L-Ala-L-Gln: 75.1 mM
[2]; L-glutamine 150 mM
  L-Ala-L-Gln: 75.5 mM
[2]; L-glutamine 200 mM
  L-Ala-L-Gln: 82.0 mM
[3]; 100 mM L-alanine methyl ester hydrochloride, L-amino acid 150 mM
  Formed peptide: 79.3 mM
[3]; L-amino acid amide hydrochloride as carboxy component 100 mM, L-amino acid 150 mM
  Formed peptide: 7.6 mM
[3]; L-amino acid methyl ester hydrochloride 100 mM, 150 mM L-glutamine
  Formed peptide: 74.6 mM
